According to article PMC4240011 (Drug delivery and translational research, 2014):

Experiments:
[1] = Equilibrium solubility in SMEDDS formulation; type: physicochemical; conditions: in SMEDDS (Cremophor EL, Carbitol, Captex 355); room temperature overnight
[2] = cited from earlier work
[3] = cited from earlier work; remark: listed apart in the source
[4] = test system: UGT (curcumin glucuronidation, mouse liver microsomes); experiment: Inhibition of curcumin glucuronidation in mouse liver microsomes; type: biochemical; conditions: inhibitor up to 10 μM, curcumin 1 μM
[5] = Oral pharmacokinetic studies in mice; type: in vivo, mouse; conditions: silibinin 100 mg/kg with curcumin 100 mg/kg in SMEDDS

Row | SMILES | Solubility [1] [mg/g] | effect on curcumin glucuronidation / UGT activity (in words) [4] | other results
1 | COc1cc(/C=C/C(=O)CC(=O)/C=C/c2ccc(O)c(OC)c2)ccc1O [Curcumin] | 51.5 | – | solubility in water [2]: ~ 2 ng/mL; bioavailability [3]: < 2%
2 | O=C(O[C@@H]1Cc2c(O)cc(O)cc2O[C@@H]1c1cc(O)c(O)c(O)c1)c1cc(O)c(O)c(O)c1 [EGCG, epigallocatechin gallate] | – | slightly increased UGT activity | –
3 | O=C(/C=C/C=C/c1ccc2c(c1)OCO2)N1CCCCC1 [Piperine, piperine] | 45.2 | no inhibitory effect | –
4 | O=C(O)c1ccccc1O [salicylic acid] | – | slightly increased UGT activity | –

Further lines, with some results ahead:

Row | Solubility [1] [mg/g] | SMILES | effect on curcumin glucuronidation / UGT activity (in words) [4] | other results
5 | 34.4 | O=c1c(O)c(-c2ccc(O)c(O)c2)oc2cc(O)cc(O)c12 [Quercetin, quercetin] | – | –
6 | 32.8 | COc1cc(C2Oc3cc([C@H]4Oc5cc(O)cc(O)c5C(=O)[C@@H]4O)ccc3OC2CO)ccc1O (stereo partly shown) [Silibinin, silibinin] | – | time of peak silibinin plasma concentration [5]: 30 min
